Laboratory results published in patent US20240158446A1, “CYCLIC COMPOUND HAVING SELECTIVE INHIBITORY ACTION ON KRAS OVER HRAS AND NRAS” (CHUGAI SEIYAKU KABUSHIKI KAISHA, priority 2021, published 2024).
Read-outs that look alike come from different tables or passages of the source. *1 amine or outer side, *2 acyl side, *3 side chain or, on linkers, in order; H or OH if unused. Where a SMILES comes first, the peptide text is derived from it. Bridges are numbered along the chain shown (N, C = ends). [ ]: non-standard residue; d: D form. The star is where a group is joined. hPhe(3-Cl-4-CF3) = N[C@@H](CCc1ccc(C(F)(F)F)c(Cl)c1)C(=O)O; NPrPhe(4-CF3) = CCCN[C@@H](Cc1ccc(C(F)(F)F)cc1)C(=O)O; X19 = CCCN([C@@H](CC1CCC(F)(F)CC1)C(=O)[*:2])[*:1]; NMeGly(cPent) = CN[C@H](C(=O)O)C1CCCC1; Pro(4,4-F2) = O=C(O)[C@@H]1CC(F)(F)CN1; NMeD = CN[C@@H](CC(=O)O)C(=O)O; NMeL = CN[C@@H](CC(C)C)C(=O)O; Morpholide = C1CN(*)CCO1; Ac5c = NC1(C(=O)O)CCCC1; Aze = O=C(O)[C@@H]1CCN1; Ac4c = NC1(C(=O)O)CCC1; Sar = CNCC(=O)O

How the values were obtained:
[1] = biological target: GDP-bound HRAS wild-type protein (Homo sapiens, UniProt P01112); experiment: Binding to HRAS by surface plasmon resonance (SPR), Single Cycle Kinetics; details: for HRAS/KRAS (ratio of KD value for HRAS to KD value for KRAS) / HRAS/KRAS (ratio of KD value with respect to HRAS to KD value with respect to KRAS): SPR, GDP-bound HRAS wild-type protein vs GDP-bound KRAS wild-type protein
[2] = biological target: GDP-bound NRAS wild-type protein (Homo sapiens, UniProt P01111); experiment: Binding to NRAS by surface plasmon resonance (SPR), Single Cycle Kinetics; details: for NRAS/KRAS (ratio of KD value for NRAS to KD value for KRAS) / NRAS/KRAS (ratio of KD value with respect to NRAS to KD value with respect to KRAS): SPR, GDP-bound NRAS wild-type protein vs GDP-bound KRAS wild-type protein
[3] = biological target: GDP-bound KRAS wild-type protein (Homo sapiens, UniProt P01116); experiment: Binding to KRAS by surface plasmon resonance (SPR), Single Cycle Kinetics; details: GDP-bound KRAS wild-type protein, read-out: KRAS KD
[4] = SPR Single Cycle Kinetics, 1:1 binding model

Chain of GDP-bound KRAS wild-type protein (P01116 whole entry): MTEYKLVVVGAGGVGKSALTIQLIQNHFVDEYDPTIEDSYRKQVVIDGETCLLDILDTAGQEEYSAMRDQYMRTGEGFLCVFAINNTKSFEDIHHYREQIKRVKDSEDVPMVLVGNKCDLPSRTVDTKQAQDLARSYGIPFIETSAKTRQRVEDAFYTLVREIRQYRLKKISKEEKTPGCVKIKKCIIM
Chain of GDP-bound HRAS wild-type protein (P01112 whole entry): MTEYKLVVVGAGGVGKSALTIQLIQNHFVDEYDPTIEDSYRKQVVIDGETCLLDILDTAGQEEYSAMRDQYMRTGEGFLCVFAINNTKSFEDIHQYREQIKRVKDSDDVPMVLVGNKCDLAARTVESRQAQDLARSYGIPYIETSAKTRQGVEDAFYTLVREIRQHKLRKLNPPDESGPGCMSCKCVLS
Chain of GDP-bound NRAS wild-type protein (P01111 whole entry): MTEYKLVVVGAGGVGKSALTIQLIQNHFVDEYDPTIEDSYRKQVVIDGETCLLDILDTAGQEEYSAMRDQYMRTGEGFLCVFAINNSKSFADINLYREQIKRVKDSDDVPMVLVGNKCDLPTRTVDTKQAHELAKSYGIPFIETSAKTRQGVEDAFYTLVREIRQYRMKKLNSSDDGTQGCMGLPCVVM

Compound | Kd [3, 4] [nM] | Kd ([3]; SPR, Single Cycle Kinetics) [nM] | HRAS/KRAS (ratio of KD value for HRAS to KD value for KRAS) [1] | NRAS/KRAS (ratio of KD value for NRAS to KD value for KRAS) [2] | HRAS/KRAS (ratio of KD value with respect to GDP-bound HRAS wild-type protein to KD value with respect to KRAS) ([1]; SPR KD ratio HRAS/KRAS, class symbols) | NRAS/KRAS (ratio of KD value with respect to GDP-bound NRAS wild-type protein to KD value with respect to KRAS) ([2]; SPR KD ratio NRAS/KRAS, class symbols) | HRAS/KRAS (ratio of KD value with respect to HRAS to KD value with respect to KRAS) [1] | NRAS/KRAS (ratio of KD value with respect to NRAS to KD value with respect to KRAS) [2]
CCCN1C(=O)[C@@H]2CCN2C(=O)CN(C)C(=O)[C@H]([C@@H](C)CC)NC(=O)[C@H](CC(C)C)N(C)C(=O)C[C@@H](C(=O)N(C)C)NC(=O)[C@H](C2CCCC2)N(C)C(=O)C2(CCC2)NC(=O)[C@@H]2CC(F)(F)CN2C(=O)[C@H](CCc2ccc(C(F)(F)F)c(Cl)c2)NC(=O)CN(C)C(=O)[C@@H]1Cc1ccc(C(F)(F)F)cc1 [PP0388] ([NMeL]I[Sar][Aze][NPrPhe(4-CF3)][Sar][hPhe(3-Cl-4-CF3)][Pro(4,4-F2)][Ac4c][NMeGly(cPent)]D-NMe2; lactam N-11) | 0.78 | – | B (a compound having 3 or more and less than 10 is denoted as B) | C (A compound having a KD ratio of 0.1 or more and less than 3 is denoted as C) | – | – | – | –
CCC[C@H]1C(=O)N[C@@H]([C@@H](C)CC)C(=O)N(C2CC2)CC(=O)N(C)[C@H]2C/C=C\CCN(C2=O)[C@@H](CC2CCC(F)(F)CC2)C(=O)N(C)CC(=O)N[C@@H](CCc2ccc(C(F)(F)F)c(OC)c2)C(=O)N2C[C@H](OCC)C[C@H]2C(=O)N(C)C2(CCC2)C(=O)N(C)[C@@H](C2CCCC2)C(=O)N(C)[C@H](C(=O)N(C)C)CC(=O)N1C [PP2352] | – | 0.76 | A (a compound having 10 or more and less than 20 is denoted as A) | A (a compound having 10 or more and less than 20 is denoted as A) | – | – | – | –
CCO[C@@H]1C[C@H]2C(=O)NC3(CCC3)C(=O)N(C)[C@@H](CC(C)C)C(=O)N(C)[C@H](C(=O)N(C)C)CC(=O)N(C)[C@@H](CC)C(=O)N[C@@H]([C@@H](C)CC)C(=O)N(C)CC(=O)N(C)[C@H]3C/C=C\CCN(C3=O)[C@@H](Cc3ccc(C(F)(F)F)cc3)C(=O)N(C)CC(=O)N[C@@H](CCc3cc(F)c(C(F)(F)F)c(F)c3)C(=O)N2C1 [PP1089, (2S,8S,12R,14S,20S,23S,27S,30S,36S,38Z)-8-[2-[3,5-difluoro-4-(trifluoromethyl)phenyl]ethyl]-12-ethoxy-27-ethyl-20-isobutyl-N,N,4,19,22,26,32,35-octamethyl-30-[(1S)-1-methylpropyl]-3,6,9,15,18,21,25,28,31,34,42-undecaoxo-2-[[4-(trifluoromethyl)phenyl]methyl]spiro[1,4,7,10,16,19,22,26,29,32,35-undecazatricyclo[34.5.1.0^10,14]dotetracont-38-ene-17,1′-cyclobutane]-23-carboxamide] | – | 0.12 | A (a compound having 10 or more and less than 20 is denoted as A) | AA (a compound having 20 or more is denoted as AA) | – | – | – | –

Continued, in another order:

Kd [3, 4] [nM] | Kd ([3]; SPR, Single Cycle Kinetics) [nM] | Compound | HRAS/KRAS (ratio of KD value for HRAS to KD value for KRAS) [1] | NRAS/KRAS (ratio of KD value for NRAS to KD value for KRAS) [2] | HRAS/KRAS (ratio of KD value with respect to GDP-bound HRAS wild-type protein to KD value with respect to KRAS) ([1]; SPR KD ratio HRAS/KRAS, class symbols) | NRAS/KRAS (ratio of KD value with respect to GDP-bound NRAS wild-type protein to KD value with respect to KRAS) ([2]; SPR KD ratio NRAS/KRAS, class symbols) | HRAS/KRAS (ratio of KD value with respect to HRAS to KD value with respect to KRAS) [1] | NRAS/KRAS (ratio of KD value with respect to NRAS to KD value with respect to KRAS) [2]
0.19 | – | CCO[C@@H]1C[C@H]2C(=O)NC3(CC(C)(C)C3)C(=O)N(C)[C@@H](C3CCCC3)C(=O)N(C)[C@H](C(=O)N(C)CC)CC(=O)N(C)[C@@H](COC)C(=O)N[C@@H]([C@@H](C)CC)C(=O)N(C)CC(=O)N(C)[C@H]3C/C=C\CCN(C3=O)[C@@H](Cc3ccc(C(F)(F)F)cc3)C(=O)N(C)CC(=O)N[C@@H](CCc3ccc(Cl)c(Cl)c3)C(=O)N2C1 [PP2835] | – | – | A (a compound having 10 or more and less than 20 is denoted as A) | A (a compound having 10 or more and less than 20 is denoted as A) | – | –
0.01 | – | CCO[C@@H]1C[C@H]2C(=O)NC3(CCCC3)C(=O)N(C)[C@@H](C3CCCC3)C(=O)N(C)[C@H](C(=O)N(C)C)CC(=O)N(C)[C@@H](C)C(=O)N[C@@H]([C@@H](C)CC)C(=O)N(C)CC(=O)N(C)[C@H]3CCCCN(C3=O)[C@@H](Cc3ccc(C(F)(F)F)cc3)C(=O)N(C)CC(=O)N[C@@H](CCc3cc(F)c(C(F)(F)F)c(F)c3)C(=O)N2C1 [PP0586] | – | – | – | – | B (a compound having 3 or more and less than 10 is denoted as B) | C (A compound having a KD ratio of 0.1 or more and less than 3 is denoted as C)
0.074 | – | CCCN1C(=O)CN(C)C(=O)CN(C)C(=O)[C@H]([C@@H](C)CC)NC(=O)[C@H](CC(C)C)N(C)C(=O)C[C@@H](C(=O)N2CCOCC2)N(C)C(=O)[C@H](C2CCCC2)N(C)C(=O)C2(CCCC2)NC(=O)[C@@H]2CCCN2C(=O)[C@H](CCc2ccc(C(F)(F)F)c(Cl)c2)NC(=O)CN(C)C(=O)[C@@H]1CC1CCC(F)(F)CC1 [PP0526] ([NMeL]I[Sar][Sar][X19][Sar][hPhe(3-Cl-4-CF3)]P[Ac5c][NMeGly(cPent)][NMeD]-Morpholide; lactam N-11) | – | – | – | – | C (A compound having a KD ratio of 0.1 or more and less than 3 is denoted as C) | B (a compound having 3 or more and less than 10 is denoted as B)
– | 0.62 | CCO[C@@H]1C[C@H]2C(=O)NC3(CCC3)C(=O)N(C)[C@@H](C3CCCC3)C(=O)N(C)[C@H](C(=O)N(C)C)CC(=O)N(C)[C@@H](CC)C(=O)N[C@@H]([C@@H](C)CC)C(=O)N(C)CC(=O)N(C)[C@H]3CCCCCN(C3=O)[C@@H](Cc3ccc(C(F)(F)F)cc3)C(=O)N(C)CC(=O)N[C@@H](CCc3c(F)c(F)c(C(F)(F)F)c(F)c3F)C(=O)N2C1 [PP0891] | B (a compound having 3 or more and less than 10 is denoted as B) | B (a compound having 3 or more and less than 10 is denoted as B) | – | – | – | –
